In patent publication US20240109924A1, “IP4-4,6 SUBSTITUTED DERIVATIVE COMPOUNDS” (SANIFIT THERAPEUTICS, S.A., priority 2021, published 2024):

Assays:
[1] = In vitro inhibition of calcium phosphate crystallization in human plasma (spectrophotometric assay); type: biochemical; settings: 0-100 μM, 1.5 mM phosphate, 12.5 mM calcium, pH 7.4, absorbance 550 nm, slope 6-24 min, read-out: Relative Potency
Method in brief: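 Human plasma spiked with compound (0-100 μM), centrifuged, then brought to final 1.5 mM phosphate and 12.5 mM calcium, pH 7.4. Absorbance at 550 nm read every 3 min for 30 min at rt; inhibition from slopes (6-24 min, absorbance vs log time) relative to blank plasma.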

tissue calcification = assay: In vivo tissue calcification (calcium content by ICP-OES) in vitamin D3-induced limb ischemia rat model; settings: SD rats, vitamin D3 150,000 IU/kg s.c. D1-D3, 30 mg/kg s.c. daily D1-D5, sacrifice D5; for Inhibition of calcification (%) Femoral: femoral arteries; for Inhibition of calcification (%) Kidney: right kidney
Protocol: (§1) The effects of compounds 1, 6, 9, 14, 18, 31, and 39 over blood perfusion and tissue calcification after the inception of limb ischemia were tested using a rat model for a duration of 5 days. Limb ischemia was induced to all groups from D1 to D3 excepting the sham group, to which no ischemia was induced. The animals were administered placebo and active agent formulations from D1 to D5. Observations were taken at several points during the treatment from D0 to D5. All animals were weighed every day before treatment. Seventy-two male Sprague Dawley (SD) rats (Envigo Corp., Huntingdon, GB) weighing approximately 150-200 g were used. The rats were fed with a […]® Rod14-H diet ([…] GmbH, Soest, DE). The rats were divided in 9 groups, 8 animals per group, as follows: • Group 1-Control (Sham) • Group 2-Physiological saline solution • Group 3-Compound 1 • Group 4-Compound 6 • Group 5-Compound 9 • Group 6-Compound 14 • Group 7-Compound 18 • Group 8-Compound 31 • Group 9-Compound 39 Limb ischemia was induced in the rats of groups 2-9 by subcutaneous administration of 150,000 IU/kg vitamin D3 (cholecalciferol, Duphafral D3 1000; Zoetis Inc., Parsippany, NJ, US) in physiological saline solution (2 mL/kg) every day during D1 to D3. The rats of group 1 were not administered vitamin D3. The rats in groups 1 and 2 were administered 2 mL/kg of physiological saline solution daily from D1 to D5 via subcutaneous route. The animals in groups 3-9 were administered subcutaneously 30 mg/kg of compounds 1, 6, 9, 14, 18, 31, and 39, respectively, in physiological saline solution (2 mL/kg), every day from D1 to D5. All rats of groups 1-9 were sacrificed on D5 30 minutes after dosing for determining their Ca baseline values. The animals were anesthetized by isoflurane inhalation. The whole aorta, carotids, femoral arteries, heart, and right kidney of the subjects were collected for calcium content measurement. The tissues were lyophilized for 48-72 h and weighed. The lyophilized tissues were then digested using a 1:1 HNO3:HClO4 mixture in a dry bath incubator for 2-4 h at 180° C. The digested tissues were subsequently diluted using ultra-pure MilliQ® water (MilliporeSigma (Merck KGaA), Burlington, MA, US) to a final volume of 5 mL (i.e., for femoral arteries and carotids) of 10 mL (i.e., for heart, kidneys, and aorta). Calcium content was quantified via inductively coupled plasma optical emission spectrometry (ICP-OES) using an Optima 7300 DV ICP-OES System spectrometer (PerkinElmer, Inc., Waltham, MA, US) according to the manufacturer's instructions. Average blood perfusion recovery compared to vehicle and sham were also calculated. Recovery for sham was 100%. Blood perfusion recovery calculated was using the following equation: 100-((BP sham-BP new drug)/(BP sham-BP vehicle)*100).

blood perfusion = assay: In vivo blood perfusion (laser doppler perfusion imaging) in vitamin D3-induced limb ischemia rat model; settings: average blood perfusion recovery vs vehicle and sham (sham 100%), SD rats, 30 mg/kg s.c. daily D1-D5
Protocol: as §1, with “to D5. Limb functional and ischemia status were evaluated by using a laser doppler perfusion imaging apparatus PeriCam PSI Normal Resolution (Perimed AB, Järfälla, SE) in all groups at D0 and D5. The perfusion difference and perfusion ratio were calculated by comparing the baseline and either D0 or D5 readings for each group. In addition, the blood perfusion ratio of each treatment group (i.e., groups 2 to 9) to sham group was also calculated. All rats” for “to D5. All rats”

| EC50 [1] [µM] | SMILES | Inhibition of calcification (%) Aorta (tissue calcification) | Inhibition of calcification (%) Carotid (tissue calcification) | Inhibition of calcification (%) Femoral (tissue calcification) | Inhibition of calcification (%) Heart (tissue calcification) | Inhibition of calcification (%) Kidney (tissue calcification) | BP recovery (%) (blood perfusion) |
| --- | --- | --- | --- | --- | --- | --- | --- |
| ≤ 5 | NCCCCCO[C@@H]1[C@@H](OP(=O)([O-])[O-])[C@H](OCCCCCN)[C@@H](OP(=O)([O-])[O-])[C@@H](OP(=O)([O-])[O-])[C@H]1OP(=O)([O-])[O-].[Na+].[Na+].[Na+].[Na+].[Na+].[Na+].[Na+].[Na+] [Compound 14, 4,6-O-bis(5-aminopentyl)-myo-inositol-1,2,3,5-tetrakis(phosphate) octasodium salt] | Under (Average inhibition percentage over or under 25% inhibition of calcification.) | Under (Average inhibition percentage over or under 25% inhibition of calcification.) | Over (Average inhibition percentage over or under 25% inhibition of calcification.) | Over (Average inhibition percentage over or under 25% inhibition of calcification.) | Over (Average inhibition percentage over or under 25% inhibition of calcification.) | Over (Average blood perfusion recovery over or under 25%.) |
| ≤ 5 | O=C([O-])CCn1cc(CO[C@@H]2[C@@H](OP(=O)([O-])[O-])[C@H](OCc3cn(CCC(=O)[O-])nn3)[C@@H](OP(=O)([O-])[O-])[C@@H](OP(=O)([O-])[O-])[C@H]2OP(=O)([O-])[O-])nn1.[Na+].[Na+].[Na+].[Na+].[Na+].[Na+].[Na+].[Na+].[Na+].[Na+] [Compound 31, 4,6-O-bis((1-(2-carboxyethyl)-1H-1,2,3-triazol-4-yl)methyl)-myo-inositol-1,2,3,5-tetrakis(phosphate) decasodium salt] | Over (Average inhibition percentage over or under 25% inhibition of calcification.) | Under (Average inhibition percentage over or under 25% inhibition of calcification.) | Over (Average inhibition percentage over or under 25% inhibition of calcification.) | Over (Average inhibition percentage over or under 25% inhibition of calcification.) | Over (Average inhibition percentage over or under 25% inhibition of calcification.) | Over (Average blood perfusion recovery over or under 25%.) |
| ≤ 5 | COCc1cn(CCCCCCO[C@@H]2[C@@H](OP(=O)([O-])[O-])[C@H](OCCCCCCn3cc(COC)nn3)[C@@H](OP(=O)([O-])[O-])[C@@H](OP(=O)([O-])[O-])[C@H]2OP(=O)([O-])[O-])nn1.[Na+].[Na+].[Na+].[Na+].[Na+].[Na+].[Na+].[Na+] [Compound 39, 4,6-O-bis(6-(4-(methoxymethyl)-1H-1,2,3-triazol-1-yl)hexyl)-myo-inositol-1,2,3,5-tetrakis(phosphate) octasodium salt] | Over (Average inhibition percentage over or under 25% inhibition of calcification.) | Under (Average inhibition percentage over or under 25% inhibition of calcification.) | Over (Average inhibition percentage over or under 25% inhibition of calcification.) | Over (Average inhibition percentage over or under 25% inhibition of calcification.) | Over (Average inhibition percentage over or under 25% inhibition of calcification.) | Over (Average blood perfusion recovery over or under 25%.) |
